Results on three compounds are retold here after US10722515B2, “Dual CLK/CDK1 inhibitors for cancer treatment” (SRI INTERNATIONAL, priority 2016, dated 2020).

In one assay the target is T1, JNK2α2(h) (Homo sapiens, UniProt P45984).
T1 construct: purchased Eurofins, Dundee, Scotland
Nature of the assay: kinase profile, radiometric assay, JNK2α2. The format is biochemical. On the procedure: (§1) Enzymatic biochemical activities were evaluated in radiometric protein kinase assays (Eurofins, Dundee, Scotland). Kinases are incubated with buffer, substrate and [γ-^33P]-ATP (specific activity approx. 500 cpm/pmol, concentration as required). The reaction is initiated by the addition of the MgATP mix. After incubation for 40 minutes at room temperature, the reaction is stopped by the addition of 3% phosphoric acid solution. 10 μL of the reaction is then spotted onto a P30 filtermat and washed three times for 5 minutes in 75 mM phosphoric acid and once in methanol prior to drying and scintillation counting.
(§2) All compounds are prepared to 50× final assay concentration in 100% DMSO. Positive control wells contain all components of the reaction with 2% DMSO. Blank wells contain all components of the reaction, with a reference inhibitor replacing the compound of interest. Each kinase is assigned a standard assay concentration of ATP within 20 μM of its apparent KM. Compounds were screened at 1 μM in duplicate or tested at 10 concentrations at half log dilution starting from 10 μM in singlicate. Dose response curves were fitted with four parameter logistic curve to obtain IC50 values. The average coefficient of variation (CV) of the conducted assay is 4.4%.

For a further assay, the target named is T2, CLK2(h) (Homo sapiens, UniProt P49760).
T2 construct: purchased Eurofins, Dundee, Scotland
T2 sequence (P49760 whole entry): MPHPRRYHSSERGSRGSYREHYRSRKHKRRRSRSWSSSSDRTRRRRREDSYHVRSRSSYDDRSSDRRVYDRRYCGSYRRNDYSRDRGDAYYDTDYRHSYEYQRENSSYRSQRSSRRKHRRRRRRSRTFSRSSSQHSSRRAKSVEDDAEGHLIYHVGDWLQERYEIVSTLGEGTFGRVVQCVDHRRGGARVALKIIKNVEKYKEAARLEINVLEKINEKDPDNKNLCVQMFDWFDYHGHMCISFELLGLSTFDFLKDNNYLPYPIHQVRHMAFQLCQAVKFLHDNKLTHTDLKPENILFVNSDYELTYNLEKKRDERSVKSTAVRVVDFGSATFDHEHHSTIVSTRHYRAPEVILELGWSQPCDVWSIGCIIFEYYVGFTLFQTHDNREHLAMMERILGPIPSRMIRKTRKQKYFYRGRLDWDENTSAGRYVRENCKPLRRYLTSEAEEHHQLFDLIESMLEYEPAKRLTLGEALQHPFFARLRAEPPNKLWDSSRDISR
Nature of the assay: radiometric protein kinase assay, CLK2. The format is biochemical. Conditions: enzyme inhibition, ATP 10 μM. The protocol:
as §1, §2

A further assay deals with T3, CLK1(h) (Homo sapiens, UniProt P49759).
T3 construct: purchased Eurofins, Dundee, Scotland
T3 sequence (P49759 whole entry): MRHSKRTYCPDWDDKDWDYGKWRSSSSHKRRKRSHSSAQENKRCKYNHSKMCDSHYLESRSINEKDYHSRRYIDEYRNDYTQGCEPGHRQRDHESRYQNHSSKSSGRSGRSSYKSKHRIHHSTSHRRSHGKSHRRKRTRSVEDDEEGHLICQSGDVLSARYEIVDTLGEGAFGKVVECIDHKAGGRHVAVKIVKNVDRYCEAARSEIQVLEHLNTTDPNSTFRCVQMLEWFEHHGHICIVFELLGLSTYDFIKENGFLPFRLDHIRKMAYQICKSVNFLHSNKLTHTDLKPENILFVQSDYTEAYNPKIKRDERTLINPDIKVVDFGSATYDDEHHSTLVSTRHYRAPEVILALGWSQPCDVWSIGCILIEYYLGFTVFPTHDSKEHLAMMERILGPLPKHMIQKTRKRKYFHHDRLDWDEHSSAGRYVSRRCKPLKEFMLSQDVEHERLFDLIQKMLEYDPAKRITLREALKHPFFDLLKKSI
Nature of the assay: radiometric protein kinase assay, CLK1. Conditions: enzyme inhibition, radiometric, ATP 10 μM; read-out: IC50 (nM) CLK1. The format is biochemical. The protocol:
as §1, §2

Another assay deals with T4, Abl(h) (Homo sapiens, UniProt P00519).
T4 construct: purchased Eurofins, Dundee, Scotland
T4 sequence (P00519 whole entry): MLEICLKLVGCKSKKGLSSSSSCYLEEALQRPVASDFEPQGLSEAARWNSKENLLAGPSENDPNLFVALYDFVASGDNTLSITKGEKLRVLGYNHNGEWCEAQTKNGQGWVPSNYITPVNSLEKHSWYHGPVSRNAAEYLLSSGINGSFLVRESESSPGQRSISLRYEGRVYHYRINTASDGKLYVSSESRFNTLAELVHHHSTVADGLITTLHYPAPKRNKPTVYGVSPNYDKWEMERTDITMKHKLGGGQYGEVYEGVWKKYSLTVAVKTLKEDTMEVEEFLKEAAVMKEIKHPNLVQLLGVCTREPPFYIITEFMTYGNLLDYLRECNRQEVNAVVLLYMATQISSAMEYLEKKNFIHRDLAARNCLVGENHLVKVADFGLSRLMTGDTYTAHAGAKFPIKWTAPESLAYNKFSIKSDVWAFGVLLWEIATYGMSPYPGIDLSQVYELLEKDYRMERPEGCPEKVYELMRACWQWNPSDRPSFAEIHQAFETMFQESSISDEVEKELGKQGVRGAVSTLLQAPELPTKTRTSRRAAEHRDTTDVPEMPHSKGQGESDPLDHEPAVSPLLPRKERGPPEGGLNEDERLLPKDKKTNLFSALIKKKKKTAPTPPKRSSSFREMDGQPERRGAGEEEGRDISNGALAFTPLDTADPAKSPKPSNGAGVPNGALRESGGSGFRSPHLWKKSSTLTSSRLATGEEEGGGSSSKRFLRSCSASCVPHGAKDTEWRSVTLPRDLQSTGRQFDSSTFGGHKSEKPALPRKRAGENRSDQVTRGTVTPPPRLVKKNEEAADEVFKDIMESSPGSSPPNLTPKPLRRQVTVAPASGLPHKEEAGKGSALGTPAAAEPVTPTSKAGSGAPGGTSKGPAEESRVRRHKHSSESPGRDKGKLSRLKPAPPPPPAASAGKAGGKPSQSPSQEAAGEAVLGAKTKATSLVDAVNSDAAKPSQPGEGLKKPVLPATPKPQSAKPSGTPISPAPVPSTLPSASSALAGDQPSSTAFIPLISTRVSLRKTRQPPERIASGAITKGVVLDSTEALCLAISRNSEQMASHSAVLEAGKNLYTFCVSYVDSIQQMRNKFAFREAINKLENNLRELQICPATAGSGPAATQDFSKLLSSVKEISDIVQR
Briefly: kinase profile, radiometric assay, Abl. The format is biochemical. On the procedure: as §1, §2

The target of the next assay is T5, Flt3(h) (Homo sapiens, UniProt P36888).
T5 construct: purchased Eurofins, Dundee, Scotland
T5 sequence (P36888 27-993): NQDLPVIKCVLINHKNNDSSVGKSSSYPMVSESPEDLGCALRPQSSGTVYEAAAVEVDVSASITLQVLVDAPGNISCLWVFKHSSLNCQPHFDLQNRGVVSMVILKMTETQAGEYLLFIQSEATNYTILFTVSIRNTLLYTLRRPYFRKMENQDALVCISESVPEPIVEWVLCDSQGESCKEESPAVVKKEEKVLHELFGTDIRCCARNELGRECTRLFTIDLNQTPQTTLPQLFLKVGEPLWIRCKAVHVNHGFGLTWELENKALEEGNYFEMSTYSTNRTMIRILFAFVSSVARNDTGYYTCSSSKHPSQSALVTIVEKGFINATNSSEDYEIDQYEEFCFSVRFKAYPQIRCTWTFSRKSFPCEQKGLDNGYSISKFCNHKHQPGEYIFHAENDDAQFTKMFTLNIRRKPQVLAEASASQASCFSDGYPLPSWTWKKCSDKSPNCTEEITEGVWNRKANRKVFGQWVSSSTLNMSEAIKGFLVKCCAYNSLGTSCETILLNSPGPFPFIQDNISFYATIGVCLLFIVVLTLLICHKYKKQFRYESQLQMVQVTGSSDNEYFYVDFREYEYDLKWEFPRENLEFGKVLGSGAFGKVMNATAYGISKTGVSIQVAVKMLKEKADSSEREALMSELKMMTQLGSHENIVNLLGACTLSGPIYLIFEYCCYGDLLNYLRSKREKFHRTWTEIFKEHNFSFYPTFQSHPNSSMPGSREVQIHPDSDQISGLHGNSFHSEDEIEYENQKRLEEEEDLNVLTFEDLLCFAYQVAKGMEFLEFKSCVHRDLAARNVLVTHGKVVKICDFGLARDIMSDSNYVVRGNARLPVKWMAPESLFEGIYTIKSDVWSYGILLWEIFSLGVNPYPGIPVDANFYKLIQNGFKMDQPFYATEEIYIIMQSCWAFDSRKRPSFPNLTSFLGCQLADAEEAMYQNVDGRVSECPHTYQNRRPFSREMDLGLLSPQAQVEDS
Briefly: kinase profile, radiometric assay, Flt3. The format is biochemical. On the procedure:
as §1, §2

The target of the next assay is T6, EGFR(h) (Homo sapiens, UniProt P00533).
T6 construct: purchased Eurofins, Dundee, Scotland
T6 sequence (P00533 25-1210): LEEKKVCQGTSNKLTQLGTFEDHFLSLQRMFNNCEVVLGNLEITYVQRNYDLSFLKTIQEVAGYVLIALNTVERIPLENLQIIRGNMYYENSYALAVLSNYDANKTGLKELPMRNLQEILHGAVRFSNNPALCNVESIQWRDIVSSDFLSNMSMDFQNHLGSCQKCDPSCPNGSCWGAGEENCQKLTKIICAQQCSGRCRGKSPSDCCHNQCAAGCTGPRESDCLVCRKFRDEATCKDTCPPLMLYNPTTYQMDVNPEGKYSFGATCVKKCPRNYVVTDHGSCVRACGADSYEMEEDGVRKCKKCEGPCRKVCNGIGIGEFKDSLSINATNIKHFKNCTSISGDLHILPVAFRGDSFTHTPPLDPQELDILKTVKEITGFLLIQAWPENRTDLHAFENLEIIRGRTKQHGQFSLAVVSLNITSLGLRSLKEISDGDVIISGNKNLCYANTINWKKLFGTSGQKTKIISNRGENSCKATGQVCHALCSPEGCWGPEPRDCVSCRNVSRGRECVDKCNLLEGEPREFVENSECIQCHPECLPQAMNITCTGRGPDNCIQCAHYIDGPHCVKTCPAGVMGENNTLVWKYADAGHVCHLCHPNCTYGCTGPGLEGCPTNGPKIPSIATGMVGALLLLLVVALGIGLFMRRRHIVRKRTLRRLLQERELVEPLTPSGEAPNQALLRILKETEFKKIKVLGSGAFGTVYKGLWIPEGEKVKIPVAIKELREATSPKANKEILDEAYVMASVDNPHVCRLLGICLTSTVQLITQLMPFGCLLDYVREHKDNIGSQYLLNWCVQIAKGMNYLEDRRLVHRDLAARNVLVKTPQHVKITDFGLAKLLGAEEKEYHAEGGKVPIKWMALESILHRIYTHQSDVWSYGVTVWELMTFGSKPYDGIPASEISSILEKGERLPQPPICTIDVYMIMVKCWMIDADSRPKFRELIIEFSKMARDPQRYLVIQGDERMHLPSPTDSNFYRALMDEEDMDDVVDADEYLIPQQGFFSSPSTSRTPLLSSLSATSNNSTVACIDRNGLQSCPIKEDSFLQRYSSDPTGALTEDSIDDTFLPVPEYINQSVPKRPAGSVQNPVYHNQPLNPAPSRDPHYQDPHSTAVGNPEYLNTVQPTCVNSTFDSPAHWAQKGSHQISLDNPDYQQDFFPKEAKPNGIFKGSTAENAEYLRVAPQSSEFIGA
Briefly: kinase profile, radiometric assay, EGFR. The format is biochemical. On the procedure:
as §1, §2

Another assay addresses T7, JNK1α1(h) (Homo sapiens, UniProt P45983).
T7 construct: purchased Eurofins, Dundee, Scotland
Briefly: kinase profile, radiometric assay, JNK1α1. The format is biochemical. On the procedure:
as §1, §2

The subject of assay [1] is SK-MEL-2/Luc-MDM2 cells (MDM2-Luc exon-skipping reporter). Nature of the assay: cell-based MDM2-Luc exon-skipping reporter assay. The settings on record: for luciferase response (Luc fold) in the MDM2-Luc reporter assay: compared with less potent CLK inhibitors of the series; for MDM2/Luc: luciferase activation vs DMSO control, average of three experiments.
For another assay, the target named is T8, IKKβ(h) (Homo sapiens, UniProt O14920).
T8 construct: purchased Eurofins, Dundee, Scotland
T8 sequence (O14920 1-756): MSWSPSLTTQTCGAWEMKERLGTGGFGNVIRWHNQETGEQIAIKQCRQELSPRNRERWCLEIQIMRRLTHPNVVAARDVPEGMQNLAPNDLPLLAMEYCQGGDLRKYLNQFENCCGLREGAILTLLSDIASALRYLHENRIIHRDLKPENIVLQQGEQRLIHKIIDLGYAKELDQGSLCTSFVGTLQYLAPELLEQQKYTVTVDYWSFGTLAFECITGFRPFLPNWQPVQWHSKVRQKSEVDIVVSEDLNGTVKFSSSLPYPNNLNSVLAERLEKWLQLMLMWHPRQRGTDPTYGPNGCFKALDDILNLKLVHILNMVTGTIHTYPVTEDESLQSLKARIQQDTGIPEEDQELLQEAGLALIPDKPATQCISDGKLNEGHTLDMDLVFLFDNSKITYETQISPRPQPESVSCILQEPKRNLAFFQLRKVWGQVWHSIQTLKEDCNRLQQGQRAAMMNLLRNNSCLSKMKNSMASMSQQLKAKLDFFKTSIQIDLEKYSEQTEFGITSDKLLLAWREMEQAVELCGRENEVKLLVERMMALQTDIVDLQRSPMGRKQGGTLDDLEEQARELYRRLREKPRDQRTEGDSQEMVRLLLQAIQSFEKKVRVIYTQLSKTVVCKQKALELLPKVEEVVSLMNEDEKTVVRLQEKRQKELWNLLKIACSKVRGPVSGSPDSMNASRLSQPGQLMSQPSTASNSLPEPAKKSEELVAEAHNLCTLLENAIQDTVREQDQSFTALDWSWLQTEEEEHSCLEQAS
Briefly: kinase profile, radiometric assay, IKKβ. The format is biochemical. The protocol: as §1, §2

The target of a further assay is T9, Plk1(h) (Homo sapiens, UniProt P53350).
T9 construct: purchased Eurofins, Dundee, Scotland
T9 sequence (P53350 whole entry): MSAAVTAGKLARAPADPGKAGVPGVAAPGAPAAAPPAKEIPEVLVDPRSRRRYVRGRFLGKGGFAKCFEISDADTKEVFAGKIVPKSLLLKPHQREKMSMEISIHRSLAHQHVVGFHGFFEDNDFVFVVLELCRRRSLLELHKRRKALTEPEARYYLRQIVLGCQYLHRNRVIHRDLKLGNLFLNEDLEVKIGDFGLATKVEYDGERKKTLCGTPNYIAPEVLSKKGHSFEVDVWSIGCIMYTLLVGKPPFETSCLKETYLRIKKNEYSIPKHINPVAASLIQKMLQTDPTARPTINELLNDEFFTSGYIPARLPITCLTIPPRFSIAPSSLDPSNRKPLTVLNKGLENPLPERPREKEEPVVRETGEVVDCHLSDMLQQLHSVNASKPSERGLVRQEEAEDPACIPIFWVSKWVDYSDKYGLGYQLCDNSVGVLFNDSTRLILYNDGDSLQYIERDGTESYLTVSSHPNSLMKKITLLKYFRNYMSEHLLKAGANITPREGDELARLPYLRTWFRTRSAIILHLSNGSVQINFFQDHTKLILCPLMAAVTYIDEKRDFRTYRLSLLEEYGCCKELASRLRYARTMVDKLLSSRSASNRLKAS
Briefly: kinase profile, radiometric assay, Plk1. The format is biochemical. The protocol:
as §1, §2

T7 sequence (P45983 1-384 isoform P45983-2): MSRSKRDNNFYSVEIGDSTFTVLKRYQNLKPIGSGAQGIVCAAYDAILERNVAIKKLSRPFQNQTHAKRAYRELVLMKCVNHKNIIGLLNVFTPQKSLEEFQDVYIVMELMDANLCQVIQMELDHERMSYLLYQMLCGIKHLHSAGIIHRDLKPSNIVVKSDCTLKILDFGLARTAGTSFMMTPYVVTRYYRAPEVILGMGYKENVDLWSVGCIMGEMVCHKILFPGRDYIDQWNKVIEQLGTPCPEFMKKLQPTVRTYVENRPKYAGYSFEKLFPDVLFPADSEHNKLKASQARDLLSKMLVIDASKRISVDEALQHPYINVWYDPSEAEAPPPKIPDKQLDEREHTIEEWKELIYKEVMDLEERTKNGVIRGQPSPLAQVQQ
T1 sequence (P45984 whole entry): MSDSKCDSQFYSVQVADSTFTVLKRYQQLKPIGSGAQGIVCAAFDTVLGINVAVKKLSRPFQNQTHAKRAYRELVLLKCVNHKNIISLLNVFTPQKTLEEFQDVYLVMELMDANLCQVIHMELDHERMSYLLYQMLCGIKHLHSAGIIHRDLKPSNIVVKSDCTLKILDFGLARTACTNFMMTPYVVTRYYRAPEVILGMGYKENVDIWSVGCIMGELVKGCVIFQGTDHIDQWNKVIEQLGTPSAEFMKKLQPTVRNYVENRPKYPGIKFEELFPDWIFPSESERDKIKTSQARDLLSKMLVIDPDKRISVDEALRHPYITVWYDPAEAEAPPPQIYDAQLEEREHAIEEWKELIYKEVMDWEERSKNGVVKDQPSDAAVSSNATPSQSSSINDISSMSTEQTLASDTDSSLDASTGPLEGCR

In general, inhibition refers to the relative decrease from the control value, in per cent. The IC50 is the concentration that inhibits the measured activity by half. Take `CC(C)n1cnc2c(Nc3cc(N)cc(Cl)c3)nc(NC3CCCCC3N)nc21` (racemic) [Compound 14, Racemic N^6-Cis-(3-Amino-5-Chlorophenyl)-N^2-(2-Aminocyclohexyl)-9-Isopropyl-9H-Purine-2,6-Diamine]: the inhibition at 1 µM on JNK2α2(h) is -6%; against Abl(h) it was 8%; against Flt3(h), 93%; at EGFR(h) it was -1%; against JNK1α1(h), -6%; against IKKβ(h) it was -9%. At Plk1(h), the inhibition at 1 µM stood at 60%. The half-maximal inhibitory concentration (IC50) is 16 nM on CLK2(h) and 18 nM on CLK1(h). For the same compound, the “luciferase response (Luc fold) in the MDM2-Luc reporter assay” value in [1] was “stronger luciferase response”. Moreover, the MDM2/Luc result in [1] is “Active”. Besides, in [1] (result in words, no concentration stated), the MDM2-Luc activity result is on record as “strong MDM2-Luc activity”.

Turning to `CC(C)n1cnc2c(Nc3cccc(Cl)c3)nc(N[C@H]3CCCC[C@@H]3N)nc21` [Compound 8, N^2-((1S,2S)-2-Aminocyclohexyl)-V-(3-Chlorophenyl)-9-Isopropyl-9H-Purine-2,6-Diamine], the inhibition at 1 µM was 1% on JNK2α2(h); -2% against Abl(h); 19% on Flt3(h); -6% at EGFR(h); 3% at JNK1α1(h); -2% against IKKβ(h). The inhibition at 1 µM on Plk1(h) was 49%. Further, the IC50 against CLK2(h) is 16 nM; on CLK1(h), 78 nM. The MDM2/Luc result in assay [1] is “Active”.

In the case of `CC(C)n1cnc2c(Nc3cccc(Cl)c3)nc(N[C@@H]3CCCC[C@@H]3N)nc21` [Compound 9, N^2-((1R,2S)-2-Aminocyclohexyl)-N^6-(3-Chlorophenyl)-9-Isopropyl-9H-Purine-2,6-Diamine], the inhibition at 1 µM is 4% against JNK2α2(h); 2% against Abl(h); 90% against Flt3(h); 3% against EGFR(h); -1% on JNK1α1(h); -5% against IKKβ(h). In addition, the inhibition at 1 µM against Plk1(h) amounted to 9%. In addition, the IC50 worked out at 11 nM on CLK2(h) and 38 nM on CLK1(h). The “luciferase response (Luc fold) in the MDM2-Luc reporter assay” value in assay [1] is “stronger luciferase response”. Moreover, the MDM2/Luc entry in [1] was “Active”.
